The results in this text go back to patent EP0995757A2, “Bivalent inhibitors of the proteasome” (Max-Planck-Gesellschaft zur Förderung der Wissenschaften …, priority 1998, dated 2000).

For assay [1], the target named is T1, yeast proteasome β2/β2' (Saccharomyces cerevisiae, UniProt P25043). Description: Proteasome assay, trypsin-like activity (fluorogenic substrate Bz-Phe-Val-Arg-AMC). It is filed as biochemical. More on the design: endogenous in cells; host or cells: Saccharomyces cerevisiae. Particulars: Bz-Phe-Val-Arg-AMC 8 µM, inhibitor incubated 1 h at 37°C, Tris-buffer pH 7.5. The procedure: (§1) A solution of proteasome from Saccharomyces cerivisiae in Tris-buffer (pH 7.5; 450 µl; 6.67 nM for PGPH, 5.56 nM for trypsin-like and 1.11 nM for chymotrypsin-like activity) was incubated with the inhibitors at varying concentrations ([…]) for 1 h at 37°C. The fluorogenic substrates for PGPH (Z-Leu-Leu-Glu-βNA, 40 µM), trypsin-like (Bz-Phe-Val-Arg-AMC, 8 µM) and chymotrypsin-like assays (Suc-Leu-Leu-Val-Tyr-AMC, 8 µM) were dissolved in the same Tris-buffer with a minimum amount of DMSO and added to the enzyme solution at 37 °C to reach a final volume of 500 µl. Fluorescence excitation/emission wavelengths were 360 nm/460 nm for AMC and 335 nm/410 nm for βNA. The rates of hydrolysis were monitored by the fluorescence increase and the initial linear portions of curves (100-300 sec) were used to calculate the IC50 values.

In assay [2] the target is T2, yeast proteasome β1/β1' (Saccharomyces cerevisiae, UniProt P38624). The experiment in a line: Proteasome assay, PGPH activity (fluorogenic substrate Z-Leu-Leu-Glu-βNA). It is filed as biochemical. More on the design: Three of the seven different β-type subunits are processed at the N-terminal nucleophile, the threonine-1 residue; endogenous in cells; host or cells: Saccharomyces cerevisiae. Particulars: Z-Leu-Leu-Glu-βNA 40 µM, inhibitor incubated 1 h at 37°C, Tris-buffer pH 7.5. The procedure:
as §1

The target of assay [3] is T3, yeast proteasome β5/β5' (Saccharomyces cerevisiae, UniProt P30656). The experiment in a line: Proteasome assay, chymotrypsin-like activity (fluorogenic substrate Suc-Leu-Leu-Val-Tyr-AMC). More on the design: endogenous in cells; host or cells: Saccharomyces cerevisiae. Conditions: Suc-Leu-Leu-Val-Tyr-AMC 8 µM, inhibitor incubated 1 h at 37°C, Tris-buffer pH 7.5. The assay is classed as biochemical. The procedure: as §1

Assay [4] has as its target T2, yeast proteasome β1/β1'. Description: Proteasome assay, PGPH activity (fluorogenic substrate Z-Leu-Leu-Glu-βNA). It is filed as biochemical, Saccharomyces cerivisiae. Particulars: Z-Leu-Leu-Glu-βNA 40 µM, inhibitor incubated 1 h at 37°C, Tris-buffer pH 7.5. More on the design: Three of the seven different β-type subunits are processed at the N-terminal nucleophile, the threonine-1 residue; from tissue; host or cells: Saccharomyces cerevisiae (natural complex from yeast; I conclude this from 'proteasome from'). The procedure:
as §1

In a further assay the target is T4, yeast 20S proteasome (Saccharomyces cerevisiae, UniProt P25043+P30656+P38624).
T4 construct: Three of the seven different β-type subunits are processed at the N-terminal nucleophile, the threonine-1 residue; from tissue; host or cells: Saccharomyces cerevisiae (natural 20S complex)
The experiment in a line: X-ray structure analysis of proteasome/inhibitor complexes (crystal soaking). Particulars: crystals soaked with 5 mM inhibitor for 12h, no competing substrate. Details: species or system S. cerivisiae. The procedure: Crystals of […] proteasomes from S. cerivisiae were grown in hanging drops at 24 °C as described previously (Groll et al., Nature 386, 463-471, 1997). The protein concentration used for crystallization was 40 mg/ml in 10 mM Tris-HCl (pH 7.5) and 1 mM EDTA. The drops contained 4 µl protein and 2 µl reservoir solution with 30 mM magnesium acetate, 100 mM morpholino-ethane-sulphonic acid (pH 6.5) and 11 % MPD. The inhibitors were soaked with a final concentration of 5 mM for 12h. Data were collected using synchrotron radiation with λ = 1.1 Å on the BW6-beamline at the DESY-Centre/Hamburg/Germany (Table 1). Crystals were soaked in a cryoprotecting buffer (30% MPD, 28 mM magnesium acetate, 100 mM morpholino-ethane-sulfonic acid (pH 6.9) and frozen in a stream of cold nitrogen gas at 90 K (Oxford Cryo Systems). X-ray intensities were evaluated by using the MOSFILM program package (version 5.3) and data reduction was performed with CCP4. The anisotropy of diffraction was corrected by an overall anisotropic temperature factor by comparing observed and calculated structure amplitudes using X-PLOR (Brunger, A. (1992) X-PLOR: A System for X-Ray Crystallography and NMR, version 3.1; Yale University Press, New Haven, CT). Electron density was averaged 10 times over the 2-fold non crystallographic symmetry axis using MAIN (Turk, D., Ph. D. Thesis, Technical University, Munich, 1992). […]

For assay [5], the target named is T3, yeast proteasome β5/β5'. The experiment in a line: Proteasome assay, chymotrypsin-like activity (fluorogenic substrate Suc-Leu-Leu-Val-Tyr-AMC). It is filed as biochemical, Saccharomyces cerivisiae. More on the design: from tissue; host or cells: Saccharomyces cerevisiae (natural complex from yeast; I conclude this from 'proteasome from'). Particulars: for IC50: chymotrypsin-like activity, Suc-Leu-Leu-Val-Tyr-AMC 8 µM, inhibitor incubated 1 h at 37°C, Tris-buffer pH 7.5; for increase in binding affinity: compared to the monovalent inhibitors 1, 2, 3 and 5, β5/β5'. The procedure:
as §1

Assay [6] has as its target T1, yeast proteasome β2/β2'. Description: Proteasome assay, trypsin-like activity (fluorogenic substrate Bz-Phe-Val-Arg-AMC). It is filed as biochemical, Saccharomyces cerivisiae. Details: from tissue; host or cells: Saccharomyces cerevisiae (natural complex from yeast; I conclude this from 'proteasome from'). Conditions: for increase in binding affinity: compared to the monovalent inhibitors 1, 2, 3 and 5, β2/β2'; for IC50: trypsin-like activity, Bz-Phe-Val-Arg-AMC 8 µM, inhibitor incubated 1 h at 37°C, Tris-buffer pH 7.5. The procedure: as §1

Where a SMILES comes first, the peptide text is derived from it.

On to `CC(=O)N[C@@H](CCCNC(=N)N)C(=O)N[C@H](C(=O)N[C@H](C=O)CCCNC(=N)N)C(C)C` [compound 2, Ac-Arg-Val-Arg-H] (Ac-Arg-Val-Arg-aldehyde), for which the IC50 on yeast proteasome β2/β2' [1] is 6.4 µM; at yeast proteasome β1/β1' [2], more than 100 µM; against yeast proteasome β5/β5' [3], more than 100 µM.
For the compound “(PEG)19-25-[NH-CO-(CH2)2-CO-Arg- Val-Arg-H]2 [compound 6]”, the IC50 against yeast proteasome β1/β1' [4] was more than 100 µM; at yeast proteasome β5/β5' [5], more than 100 µM; against yeast proteasome β2/β2' [6], 0.071 µM. In addition, the “active sites occupied by the inhibitory head group in the X-ray structure” value at yeast 20S proteasome is “only in the two β2 and β2' active sites”. On yeast proteasome β2/β2' [6], the “increase in binding affinity” value is on record as “about two orders of magnitude”. This compound also had an increased activity at yeast proteasome β2/β2' [6] (homobivalent versus related monovalent inhibitors, tryptic activity β2/β2') of 100 fold.
On to “(PEG)19-25-[NH-CO-(CH2)2-CO-Arg-Val-Arg-H][NH-CO-(CH2)2-CO-Leu-Leu-Nle-H] [compound 7]”, for which the 50% inhibitory concentration (IC50) on yeast proteasome β1/β1' [4] was more than 100 µM; against yeast proteasome β5/β5' [5] it was 0.031 µM; against yeast proteasome β2/β2' [6] it was 0.097 µM. Also, the “increase in binding affinity” value on yeast proteasome β5/β5' [5] and at yeast proteasome β2/β2' [6] was “about two orders of magnitude” each time.
Regarding “(PEG)19-25-[NH- CO- (CH2)2- CO-Leu-Leu-Nle-H]2 [compound 4]”, the IC50 against yeast proteasome β1/β1' [4] is more than 100 µM; against yeast proteasome β5/β5' [5], 0.017 µM; on yeast proteasome β2/β2' [6] it was more than 100 µM. For the same compound, the “active sites occupied by the inhibitory head group in the X-ray structure” value on yeast 20S proteasome is given as “occupies all six active sites”. The “increase in binding affinity” value on yeast proteasome β5/β5' [5] is “about two orders of magnitude”. This compound had an increased activity at yeast proteasome β5/β5' [5] (homobivalent versus related monovalent inhibitors, chymotryptic activity β5/β5') of 100 fold.
Regarding “HOOC-(CH2)2-CO-NH-(PEG)19-25-NH-(CH2)2-CO-Leu-Leu-Nle-H [compound 3]”, the IC50 against yeast proteasome β1/β1' [4] was more than 100 µM; on yeast proteasome β5/β5' [5], 1.8 µM; at yeast proteasome β2/β2' [6] it was more than 100 µM.
Take “HOOC-(CH2)2-CO-NH-(PEG)19-25-NH-CO-(CH2)2-CO-Arg-Val-Arg-H [compound 5]”: the IC50 was more than 100 µM against yeast proteasome β1/β1' [4], more than 100 µM against yeast proteasome β5/β5' [5] and 8.2 µM against yeast proteasome β2/β2' [6].
